Measurements as given in patent US9238003B2, “Extended or continuous wear silicone hydrogel contact lenses for the extended release of comfort molecules” (AUBURN UNIVERSITY, priority 2005, dated 2016).

How the values were obtained:
Assay type in all cases: physicochemical
[1] = Dynamic release of HA from hydrogel lenses in lacrimal solution (ELISA); settings: largest HA, 1 million daltons; 6.5 mg HA per g PM
Protocol: Dynamic Release Studies. Dynamic release studies were conducted to measure how long a therapeutic contact lens would release drug in vitro under conditions similar to the eye surface. The studies are also able to reveal the order of the release.
The protocol for a kinetic release study begins with the synthesis of hydrogel as described previously. As each study was conducted in triplicate, three lenses were made of every HA-prepolymer formulation. A lacrimal solution isotonic with human tears (6.78 g/L NaCl, 2.18 g/L NaHCO3, 1.38 g/L Kcl, 0.084 g/L CaCl2 2H2O, pH 8) was pipetted into 50 mL centrifugation tubes, 20 mL per tube. Each lens was placed in a tube and incubated at 35EC on an orbital shaker. After measured time intervals, the lenses were extracted and deposited into fresh lacrimal solution. The lacrimal solution with HA released in it was stored at 4° C. until essayed. After data had been collected for 3-5 days, an ELISA assay for HA was used to determine the concentration in each release sample. If necessary, the samples were diluted to bring into the assay detection range.
Cumulative release curves were plotted for each lens formulation, and the data was used to calculate the rate of diffusion of HA from the hydrogel. The transport of the drug from the lens placed in a fluid environment was mathematically modeled. […]

[2] = Heat stability of HA solutions; settings: heated 60 minutes
Protocol: The effect of heat conditions on HA solution was also assessed. In 2 mL microcentrifuge vials, 1 mL samples of HA solutions of 500 ng/mL and 10 μg/mL were heated to 105° C. and 121EC respectively. The 500 ng/mL samples were heated for 0 minutes, 5 minutes, 30 minutes and 60 minutes while the 10 μg/mL samples were heated for 15 minutes, 30 minutes, 45 minutes and 60 minutes. The sample vials were quenched in a room temperature water bath and assayed with an ELISA assay kit for HA.

[3] = Loading of HPMC into LFB lenses by soaking in aqueous HPMC solution
From the text: The first step of this work was to assess the feasibility of loading HPMC directly into a lens. […] The mass uptake of various HPMC solutions is presented in Table 2 (showing mass loading of various HPMC concentrations and molecular weights).

[4] = Dynamic HPMC release studies, perfect sink (Sotax dissolution apparatus, DI water); settings: soaked LFB lenses
Protocol: Dynamic HPMC Release Studies. Dynamic release studies were conducted to measure how long each therapeutic contact lens would release HPMC in-vitro. The studies were conducted with the perfect sink model in order to sustain the greatest driving force, using a Sotax Dissolution Apparatus (Horsham, Pa.), in which loaded lenses were placed in 250 mL of DI water (pH 6.4). Separate experiments were conducted to confirm the perfect sink volume.
In the Sotax apparatus, the release media was stirred at a constant rate of 30 rpm by paddles and kept at a constant temperature of 34° C. The average weight of the lenses out of the mold was 35 mg±6 mg. HPMC concentration in the release medium was determined via HPLC (Shimadzu, Japan) equipped with a refractive index detector. The mobile phase was deionized water, and a flow rate of 1 mL/min was maintained by the HPLC. A standard curve of refractive index and known HPLC concentration was established. Percent mass release curves were plotted for each lens.

[5] = Pre-polymer loading of HPMC into LFB lens formulation
Protocol: Synthesis of LFB Lenses and Synthesis of Imprinted LFB Lenses. Lenses were produced by mixing individual monomers of the LFB formulation. The monomers were kept refrigerated at 4° C. A typical formulation consisted of 1300 mg of Betacon macromer, 1300 mg of TRIS, and 1300 mg of DMA (referred to as the base formulation). The base formulation was equal parts of these monomers and used to calculate ratios of other components. Equal weights of EGDMA and PEG200DMA were added to a desired concentration anywhere between 0 and 10 wt % of the base formulation Imprinting monomers were then added between 0 and 10 wt % of the base formulation. Darocur 1173 was added to the solution to a concentration of 1% of the base formulation. The samples were thoroughly mixed by sonication for 30 minutes and then the comfort agent was added to the desired concentration. The formulations were exposed to high shear mixing for up to 1 minute and sonicated for at least 15 minutes to remove any dissolved air or air bubbles. After the comfort agent was added, the sample was sonicated and mixed until evenly dispersed.
A fixed volume was pipetted into polypropylene (PP) lens molds provided by CIBA Vision, Inc. The mass of formulation pipetted varied between 100 to 200 mg depending on the concentration of comfort agent. […]

Substance	time HA was diffusing out of the lens [1]	change in signal strength (heat degradation of large HA) ([2]; 500 ng/mL solution) [%]	change in concentration (heat degradation of large HA) ([2]; 10 μg/mL solution) [%]	Mass Loaded from Drug Solutions ([3]; 1 Day Soak, 0.1%) [μg/lens]	Mass Loaded from Drug Solutions ([3]; 1 Day Soak, 1%) [μg/lens]	Mass Loaded from Drug Solutions ([3]; 1 Day Soak, 10%) [μg/lens]	Mass Loaded from Drug Solutions ([3]; 2 Day Soak, 0.1%) [μg/lens]	Mass Loaded from Drug Solutions ([3]; 2 Day Soak, 1%) [μg/lens]	Mass Loaded from Drug Solutions ([3]; 2 Day Soak, 10%) [μg/lens]	Mass Loaded from Drug Solutions ([3]; 7 Day Soak, 0.1%) [μg/lens]	Mass Loaded from Drug Solutions ([3]; 7 Day Soak, 1%) [μg/lens]	Mass Loaded from Drug Solutions ([3]; 7 Day Soak, 10%) [μg/lens]	loading after soaking in a solution for a week ([3]; any solution concentration) [μg/lens]	Release Time After 7 Day Soak [4]	loading of HPMC limited by thickness ([5]; 100 μm swollen lens thickness)	maximum mass of HPMC loaded (pre-polymer loaded) ([5]; 350 μm thick lens)	release time from soaked lenses [4]
Hyaluronic Acid [HA]	up to 3 days	50	30														
hydroxypropyl methylcellulose [HPMC 120 KDa]				0.001	0.003	0.004	0.08	0.04	0.01	0.006	0.2	0.1	≤ 0.2	None	~1,000 μg/lens	~8,000 μg/lens	
hydroxypropyl methylcellulose [HPMC 10 KDa]				0.32	4.1	5.4	0.21	3.2	6.9	1.2	5.7	2.9		30 min			less than 30 minutes
hydroxypropyl methylcellulose [HPMC 90 KDa]				0.09	0.07	0.4	0.09	0.65	0	0.01	0.48	0		None			
